Tests used:
[1] = tested on: CAL-148; details: 72 h
Procedure, shortened: (§1)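 For viability, cells received 2.5 µl CellTiter-Blue for 2 h at 37 °C and fluorescence was read at 560/590 nm. Before this, breast cancer cell lines in 20 µl suspension had been incubated for 72 h on 384-well plates pre-loaded with compound dissolved in 5 µl medium. EC50 was obtained from a percent-inhibition dose-response fit censored at the highest concentration, after normalisation of each plate to vehicle and a positive kill control; rows with a zero drug sensitivity score were discarded.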

[2] = tested on: DU-4475; details: 72 h
Procedure, shortened: as §1

[3] = tested on: MDA-MB-453; details: 72 h
Procedure, shortened: as §1

[4] = tested on: CAL-51; details: 72 h
Procedure, shortened: as §1

[5] = tested on: CAL-85-1; details: 72 h
Procedure, shortened: as §1

[6] = tested on: SK-BR-3; details: 72 h
Procedure, shortened: (§2)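 For viability and cell death testing, 384-well plates carried compound at 5 concentrations in 10-fold steps over a compound-specific 10,000-fold range, and breast cancer cell lines were seeded in 20 µl suspension. After 72 h incubation, cell death was read by CellTox Green fluorescence (485/520 nm) before viability was read by CellTiter-Glo luminescence. EC50 was fitted from the dose-response curves and censored at the top concentration. Normalisation on each plate was to 0.1 % DMSO and a positive kill control.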

[7] = tested on: HDQ-P1; details: 72 h
Procedure, shortened: as §2

[8] = tested on: Hs578T; details: 72 h
Procedure, shortened: as §2

[9] = tested on: HCC1937; details: 72 h
Procedure, shortened: as §2

[10] = tested on: MDA-MB-231; details: 72 h
Procedure, shortened: as §2

[11] = tested on: MDA-MB-468; details: 72 h
Procedure, shortened: as §2

[12] = tested on: MDA-MB-436; details: 72 h
Procedure, shortened: as §2

[13] = tested on: HCC1599; details: 72 h
Procedure, shortened: as §2

[14] = tested on: DU-4475; details: 72 h; remark: listed apart in the source
Procedure, shortened: as §2

[15] = tested on: CAL-120; details: 72 h
Procedure, shortened: as §2

[16] = tested on: BT-549; details: 72 h
Procedure, shortened: as §2

[17] = tested on: MDA-MB-453; details: 72 h; remark: listed apart in the source
Procedure, shortened: as §2

[18] = tested on: CAL-51; details: 72 h; remark: listed apart in the source
Procedure, shortened: as §2

[19] = tested on: CAL-85-1; details: 72 h; remark: listed apart in the source
Procedure, shortened: as §2

[20] = tested on: MFM-223; details: 72 h
Procedure, shortened: as §2

[21] = tested on: BT-474; details: 72 h
Procedure, shortened: as §2

[22] = tested on: MCF-10A; assay: drug sensitivity score (DSS), CellTox Green (DSS (AUC-based score)); higher = stronger drug effect (viability inhibition or cytotoxicity); extreme values may be limits of the assay; details: incubation time: 72 h
Procedure, shortened: (§3)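 Normalisation on every plate relied on 0.1 % DMSO and a positive kill control. The plates, 384-well format, held compound at 5 concentrations 10-fold apart across a compound-specific 10,000-fold range, and breast cancer cell lines in 20 µl suspension were incubated on them for 72 h before CellTox Green and then CellTiter-Glo readings. The drug sensitivity score derives from the area under the fitted dose-response curve.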

[23] = tested on: MDA-MB-468; assay: as above; details: incubation time: 72 h
Procedure, shortened: as §3

[24] = tested on: MDA-MB-453; assay: as above; details: incubation time: 72 h
Procedure, shortened: as §3

Row | EC50, CellTiter-Blue viability [3] [nM] | EC50, CellTiter-Glo [6] [nM] | EC50, CellTiter-Glo [9] [nM] | EC50, CellTiter-Glo [10] [nM] | EC50, CellTiter-Glo [11] [nM] | EC50, CellTiter-Glo [12] [nM] | EC50, CellTiter-Glo [13] [nM] | EC50, CellTiter-Glo [16] [nM] | EC50, CellTiter-Glo [17] [nM] | EC50, CellTiter-Glo [21] [nM] | SMILES | EC50, CellTiter-Blue viability [1] [nM] | EC50, CellTiter-Blue viability [2] [nM] | EC50, CellTiter-Blue viability [4] [nM] | EC50, CellTiter-Blue viability [5] [nM] | EC50, CellTiter-Glo [7] [nM] | EC50, CellTiter-Glo [8] [nM] | EC50, CellTiter-Glo [14] [nM] | EC50, CellTiter-Glo [15] [nM] | EC50, CellTiter-Glo [18] [nM] | EC50, CellTiter-Glo [19] [nM] | EC50, CellTiter-Glo [20] [nM] | drug sensitivity score [22] | drug sensitivity score [23] | drug sensitivity score [24]
1 | 114 | 529 | 350 | 740 | 397 | 507 | 752 | 499 | 149 | 575 | COc1ccc(S(=O)(=O)Nc2cccnc2Nc2ccc(O)cc2)cc1 [ABT-751] | 949 | 1250 | 772 | 290 | 231 | 773 | 1510 | 218 | 6520 | 264 | 1010 | 4 | 4.39 | 0
2 | 2670 | 3120 | 2100 | 1810 | 1920 | 2170 | 3160 | 3160 | 3220 | 2480 | COc1cc(Nc2c(C#N)cnc3cc(OCCCN4CCN(C)CC4)c(OC)cc23)c(Cl)cc1Cl [Bosutinib] | 1860 | 5670 | 5020 | 3180 | 972 | 9760 | – | 1450 | 1400 | 1580 | 1910 | 7.8 | 5.02 | 1.6
3 | 103 | 12.8 | – | – | 6.86 | 9.55 | 18.4 | 5.01 | 47.6 | 32.1 | Nc1ccn([C@@H]2O[C@H](CO)[C@@H](O)C2(F)F)c(=O)n1 [Gemcitabine] | 18.8 | 91.6 | 22 | 87.4 | – | 26.9 | 20.7 | 87.3 | 12.5 | 18.5 | – | 0 | 19.7 | 0
4 | 396 | 185 | 665 | 286 | 152 | 134 | 466 | 144 | 750 | 404 | CC(=O)[C@]1(O)Cc2c(O)c3c(c(O)c2[C@@H](O[C@H]2C[C@H](N)[C@H](O)[C@H](C)O2)C1)C(=O)c1ccccc1C3=O [Idarubicin] | 18.7 | 23.4 | 7.78 | 240 | 837 | 281 | 193 | 580 | 49.1 | 252 | 470 | 1.59 | 10.5 | 0
5 | 310 | 203 | 344 | 172 | 759 | 308 | 183 | 373 | 66.3 | 233 | C=CCn1c(=O)c2cnc(Nc3ccc(N4CCN(C)CC4)cc3)nc2n1-c1cccc(C(C)(C)O)n1 [MK1775] | 242 | 477 | 382 | 507 | 326 | 275 | 1740 | 740 | 380 | 294 | 250 | 8.71 | 11.1 | 0
6 | 92.3 | 634 | 547 | 265 | 229 | 690 | – | 585 | – | 275 | CO[C@@H]1[C@H](N(C)C(=O)c2ccccc2)C[C@H]2O[C@]1(C)n1c3ccccc3c3c4c(c5c6ccccc6n2c5c31)C(=O)NC4 [Midostaurin] | – | 451 | 182 | 314 | 465 | 254 | 562 | 275 | 308 | 831 | 595 | 0 | 17 | 0
7 | 15.3 | 7.09 | 28 | 40.4 | 4.55 | 5.43 | 37.1 | 11.7 | 42.6 | 42.4 | CCNC(=O)c1noc(-c2cc(C(C)C)c(O)cc2O)c1-c1ccc(CN2CCOCC2)cc1 [NVP-AUY922] | 19.4 | 15.9 | 22.2 | 18.8 | 14.1 | 41.8 | 33.1 | 37.2 | 34 | 38.8 | 10.2 | 13.6 | 0 | 0.086

Reference: the supplement of paper PMC4862054
